Source: patent US4235916A, “2-Methylthio-6-fluoro-9-(1-methyl-4-piperidylidene)-thioxanthene and salts thereof, neuroleptic compositions and method of use” (Kefalas A/S, priority 1977, dated 1980)
Where two headings read alike, the source gives them in different places.

Experiments:
[1] = system: methylphenidate; assay: Methylphenidate antagonism; assay type: in vivo, male; settings: Mus musculus, ip, mice, i.p.
Protocol: Methylphenidate antagonism (ED50 mg/kg i.p.)
Perspex observation cages without bottom and lid, consisting of 5 sections each measuring 12×25×30 cm. White corrugated paper. Mice, male, 18-25 g.
3×2 mice are used for each dose level. Two or 24 hours after injection of test substance, methylphenidate, 60 mg/kg, is injected s.c.
After administration of methylphenidate the mice are placed in the observation cages, 2 in each cage, where they remain for exactly 1 hour. The cages are placed on corrugated paper, the corrugations facing upwards. It is examined whether the mice have been biting the corrugated paper or not. […] If one or more of the control pairs have not been biting, the test has to be repeated on a new set of mice.
The result is stated in fractions: 0/3, 1/3, 2/3 and 3/3 where 0, 1, 2 and 3 are the number of pairs which have not been biting on receipt of the dose in question.

[2] = system: amphetamine; assay: Amphetamine antagonism; assay type: in vivo, Rats, male; settings: for ED50: Rattus norvegicus, ip, 2 h, rats, i.p., amphetamine sulphate 13.6 mg/kg i.v. two hours later, read-out: Amphetamine antag. (ED50)
Protocol: Amphetamine antagonism (ED50 mg/kg i.p.)
Perspex observation cages without bottom and lid, consisting of 5 sections each measuring 12×25×30 cm.
The test substance is given i.p. in a reasonable dose based on the determined LD50. Two hours later an intravenous injection of amphetamine sulphate 13.6 mg/kg (~10 mg/kg amphetamine base) is given, after which the rats are placed individually in the cages. The cages are placed on white corrugated paper. Five rats are used for each dose level. Observations are made after 55 minutes and 65 minutes--observation time: 1 minute. The animals are observed for stereotypy (movements of the head, compulsive gnawing). […] If the compound has full antagonistic effect another group of rats is used at a lower dose. […] The result is stated as fractions: 0/5, 1/5, 2/5, 3/5, 4/5 and 5/5, where 0, 1, 2, 3, 4 and 5 indicate the number of rats which have not shown stereotypy at the dose in question. The results are calculated as ED50 in mg/kg.

[3] = Determination of LD50 (acute toxicity, i.p.); assay type: in vivo, Mice, male; settings: for LD50 at 24 h: mouse, in vivo, ip, mice, i.p., deaths after 24 hours; for acute toxicity, in words: compared with Lu 14-089 or related thioxanthene derivatives
Protocol: Determination of LD50 (mg/kg i.p.)
Mice, male, weighing from 18-25 g, fasted from 4 p.m. the day before test day.
Four treated groups and one control group, each of 4 mice, are used.
The test substance is suspended in methyl cellulose 0.5% and injected intraperitoneally. The animals are placed in Macrolon cages type II. […] Furthermore the results are recorded according to the punching instructions as fractions: 0/4, 1/4, 2/4, 3/4 and 4/4 where 0, 1, 2, 3 and 4 indicate the number of deaths after the dose in question.

[4] = Catalepsy wire mesh, rat, max.; assay type: in vivo, male; settings: rats; for Ratio Catalep./Amphetam. antag.: catalepsy ED50 (s.c.) / amphetamine antagonism ED50 (i.p.); for ED50: rat, in vivo, sc, wire mesh, maximum effect within first 6 hours
Protocol: Catalepsy wire mesh, rat, max. (ED50 mg/kg s.c.)
A vertical wire netting (50 cm×49 cm). The meshes (openings) of the netting are square (1 cm×1 cm). The wire diameter is 2 mm.
The animals are labeled and used in groups of five. The test substance is injected subcutaneously (s.c.) (5 ml/kg) at 4 dose levels selected from the fixed dose scale.
The animals are placed in the middle of the vertical wire netting 60, 120, 180, 240, 300 and 360 minutes after injection of the test compound. The animals are considered cetaleptic when they remain immobile during a period of 15 seconds. This cataleptic reaction is designated +. If the rats are "atonic" and passively slides down the wire mesh they are considered not cataleptic. If the animals climb up and down the wire mesh they are nor cataleptic. In both situations the designation - is used.

[5] = system: physostigmine; assay: Physostigmine antagonism; assay type: in vivo, male; settings: Mus musculus, ip, 0.5 h; mice, i.p., physostigmine 2 mg/kg i.p. thirty minutes after test substance; survivors after 60 minutes; read-out: Physostigmine antag. (ED50)
Protocol: Physostigmine antagonism (ED50 mg/kg i.p.)
Scopolamine bromide 0.04 mg/ml or 0.1 mg/ml.
Physostigmine salicylate 0.2 mg/ml.
Five mice are used for each dose level. One group, serving as positive control, is injected with scopolamine 0.4 mg/kg i.p. Thirty minutes after i.p. administration of test substance (or scopolamine), physostigmine 2 mg/kg, is injected i.p. This dose of physostigmine induces tremor with salivation, clonic convulsions, coma and death. After 60 minutes the number of survivors are counted.
The results are recorded in fractions: 0/5, 1/5, 2/5, 3/5, 4/5 and 5/5 where 0, 1, 2, 3, 4 and 5 inducate the number of animals in which the test compound has prevented the occurrence of death.

[6] = system: apomorphine; assay: Apomorphine vomit; assay type: in vivo, Adult Beagle dogs; settings: Canis lupus familiaris, sc, 4 h; Beagle dogs, s.c., four hours before apomorphine 25 μg/kg i.v.; calculated ED50 approximate; read-out: Apomorph. Vomit (ED50)
Protocol: Adult Beagle dogs of either sex, housed individually in kennels or in cages.
2-4 dogs are used per dose level.
The test compound is injected subcutanelusly in the back of the neck four hours before apomorphine, which is given intravenously in a dose of 25 μg/kg (volume 0.1 ml/kg).
The results are given as fractions, i.e. 0/2, 1/2 or 2/2, stating the number of dogs protected against vomiting over to the number of dogs. On account of the small number of animals the calculated ED50 should be considered approximate.

[7] = molecular target: Muscarinic; assay: Muscarinic affinity binding (3H-PrBCM, whole brain P2 fraction); set-up: species or system Rats; settings: displacement of specific 3H-PrBCM binding by 50%; rat brain, pH 7.4, 30° C.; read-out: Muscarine affinity (IC50)
Protocol: Muscarinic affinity binding
Sodium thiosulphate 10 mM (2.48 g/1000 ml) ^3 H-PrBCM (N-2'-chloroethyl-N-[2", 3"-^3 H2 ] propyl-2-aminoethylbenzilate,spec. act. ~28 Ci/mM).
A rat is killed by a blow on the head and exsanguinated. The whole brain is removed and homogenized in 10 volumes of ice cold 0.32 M sucrose with a hand homogenizer. The homogenate is centrifuged at 600 g for 10 minutes (4° C.) and the pellet discarded. The supernatant is then centrifuged at 25000 g for 55 minutes (4° C.). The pellet fraction (P2) is resuspended in the same volume of 0.32 M sucrose as previously used and stored on ice.
The aziridinium ion of ^3 H-propylbenzilyllcholine mustard (^3 H-PrBCM) is prepared by cyclization at a concentration of 130 nM in 15 mM Na-phosphate buffer (pH 7.4) for 50 minutes at 20° C. The reaction is terminated by addition of 100 volumes of ice cold buffer.
The incubation is continued for 15 minutes and stopped by addition of 20 ml 100 mM phosphate buffer containing 10 mM sodium thiosulphate. The samples are filtered through Whatman GF/C glass fiber filters and washed with 30 ml ice cold 100 mM phosphate buffer. The filters with synaptosomes are transferred to scintillation vials and the radio-activity measured by liquid scintillation counting after addition of 10 ml Instal-Gel (Packard Inst.). All experiments are performed in triplicate.
Specific ^3 H-PrBCM binding is defined as the total binding minus the binding in the presence of 20 μM atropine.

[8] = Administration to human beings; settings: in vivo
From the text: Lu 14-089 as well as the non-toxic acid addition salts thereof may be administered to animals such as dogs, cats, horses sheeps or the like, including human beings, both orally and parenterally, and may be used for example in the form of tablets capsules, powders, syrups, suppositories, or in the form of the usual sterile solutions for injection.

[9] = Neuroleptic and pharmacological profile evaluated by standard test methods (overall statements); assay type: in vivo
From the text: The pharmacological testing of 2-methylthio-6-fluoro-9-(1-methyl-4-piperidylidene)-thioxanthene, in the following called Lu 14-089 for short, and its non-toxic acid addition salts consisted of standard and reliable tests.

[10] = methylphenidate 60 mg/kg s.c. 2 h after test substance, read-out: Methylphenidate antag. 2h (ED50)
[11] = methylphenidate 60 mg/kg s.c. 24 h after test substance, read-out: Methylphenidate antag. 24h (ED50)

| Structure (SMILES) | ED50 [1, 10] [mg/kg] | ED50 [2] [mg/kg] | LD50 at 24 h [3] [mg/kg] | Ratio Catalep./Amphetam. antag. [4] | ED50 [4] [mg/kg] | ED50 [5] [mg/kg] | ED50 [1, 11] [mg/kg] | ED50 [6] [mg/kg] | IC50 [7] [nM] | neuroleptic activity as expressed by the amphetamine antagonism, in words ([2]; compared with Lu 14-089) | acute toxicity, in words [3] | Results upon administration to human beings [8] | neuroleptic effects, in words ([9]; compound and its non-toxic acid addition salts) | anticholinergic effects, in words ([9]; in vivo) | extrapyramidal side effects, in words ([9]; pharmacological profile, standard test methods) |
| --- | --- | --- | --- | --- | --- | --- | --- | --- | --- | --- | --- | --- | --- | --- | --- |
| CN1CCC(=C2c3ccc(F)cc3Sc3ccc(Cl)cc32)CC1 [Lu 12-304, 2-Chloro-6-fluoro-9-(1-methyl-4-piperidylidene)-thioxanthene] | 4.6 | 5.5 | 187 | 0.62 | 3.4 | 8.9 |  |  |  |  |  |  |  |  |  |
| CN1CCC(=C2c3ccc(F)cc3Sc3ccc(C(F)(F)F)cc32)CC1 [Lu 12-312, 2-Trifluoromethyl-6-fluoro-9-(1-methyl-4-piperidylidene)-thioxanthene] | 0.07 | 0.56 | 188 | 0.12 | 0.067 | 7.7 | 2.1 | 0.04 | 18 |  |  |  |  |  |  |
| CN1CCC(=C2c3ccccc3Sc3ccc(C(F)(F)F)cc32)CC1 [Lu 13-003, 2-Trifluoromethyl-9-(1-methyl-4-piperidylidene)-thioxanthene] | 0.15 | 0.37 | 187 | 3.5 | 1.3 | 4.6 |  |  | 8 |  |  |  |  |  |  |
| CN1CCC(=C2c3ccccc3Sc3ccc(Cl)cc32)CC1 [Lu 13-016, 2-Chloro-9-(1-methyl-4-piperidylidene)-thioxanthene] | 1 | 3.9 | 226 | 6.5 | 25 | 4.4 | > 20 |  | 14 | much lower neuroleptic activity | higher acute toxicity |  |  |  |  |
| CSc1ccc2c(c1)C(=C1CCN(C)CC1)c1ccc(F)cc1S2 [Lu 14-089, 2-methylthio-6-fluoro-9-(1-methyl-4-piperidylidene)-thioxanthene] | 0.1 | 0.74 | > 320 | 8.5 | 6.3 | 7.2 | 14 | 0.014 | 14 |  | low acute toxicity compared with related thioxanthene derivatives | very gratifying | strong and relatively longlasting neuroleptic effects | strong anticholinergic effects | low extrapyrimidal side effects |
| CSc1ccc2c(c1)C(=C1CCN(C)CC1)c1ccccc1S2 [Lu 14-145, 2-Methylthio-9-(1-methyl-4-piperidylidene)-thioxanthene] | 1.4 | > 20 | 188 |  | > 20 | 4.9 | 14 |  | 13 |  |  |  |  |  |  |
| CN(C)CCCN1c2ccccc2Sc2ccc(Cl)cc21 [chlorpromazine] | 4 | 7.1 | 226 |  | 5.6 | > 40 | 20 | 0.36 |  |  |  |  |  |  |  |
| CN(C)CC/C=C1/c2ccccc2Sc2ccc(Cl)cc21 [chlorprothixene] | 0.71 | 6.1 | 226 |  | 4 | 86 | > 20 | 0.9 |  |  |  |  |  |  |  |
| OCCN1CCN(CCC=C2c3ccccc3Sc3ccc(Cl)cc32)CC1 [clopenthixol] | 1.2 | 0.77 | 226 |  | 0.95 | > 20 |  | 0.04 |  |  |  |  |  |  |  |
| CN1CCN(C2=Nc3cc(Cl)ccc3Nc3ccccc32)CC1 [clozapine] | > 160 | > 40 | > 320 |  | 85 | 24 |  | ~4 |  |  |  |  |  |  |  |
| OCCN1CCN(CCC=C2c3ccccc3Sc3ccc(C(F)(F)F)cc32)CC1 [flupentixol] | 0.2 | 0.69 | 246 | 0.36 | 0.25 | > 40 | > 20 | 0.02 | 4000 |  |  |  |  |  |  |
| OCCN1CCN(CCCN2c3ccccc3Sc3ccc(C(F)(F)F)cc32)CC1 [fluphenazine] | 0.04 | 0.08 | 259 |  | 0.099 | > 20 | 3.6 | 0.007 |  |  |  |  |  |  |  |
| O=C(CCCN1CCC(O)(c2ccc(Cl)cc2)CC1)c1ccc(F)cc1 [haloperidol] | 0.06 | 0.14 | 226 |  | 0.21 | > 20 |  | 0.01 |  |  |  |  |  |  |  |
